{"source": "PubChem BioAssay (NCI)", "note": "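Method: 48-hour compound exposure of cells in 96-well plates, five concentrations, linear interpolation of endpoints. GI50 = concentration required for 50% inhibition of growth. TGI marks complete inhibition of growth.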"}
{"test_system": "SF-539 CNS", "test": "NCI-60 cell line screen, 48 h", "units": {"GI50": "µM", "TGI": "µM"}}
{"smiles": "N#Cc1c(N)nc(N2CCOCC2)c(C#N)c1-c1ccncc1", "GI50": "> 100", "TGI": "> 100"}
{"test_system": "SK-MEL-5 melanoma", "test": "NCI-60 cell line screen, 48 h", "units": {"GI50": "µM", "TGI": "µM"}}
{"smiles": "CSC1=Nc2c(c(C)c(C)n2COC(CO)CO)C2=NC(=O)C(C)N12", "note": "(centres undefined)", "GI50": "> 100", "TGI": "> 100"}
{"smiles": "COc1cccc(CCNC(=O)Cc2ccccc2CCO)c1", "TGI": "> 100"}
{"smiles": "CCOC(=O)C1=CN(C)C=C(C(=O)OCC)C1c1cc(Br)c(OCC)c(OC)c1", "GI50": 49.2, "TGI": "> 100"}
{"smiles": "N#Cc1c(N)nc(N2CCOCC2)c(C#N)c1-c1ccncc1", "GI50": "> 100", "TGI": "> 100"}
{"test_system": "NCI/ADR-RES ovarian", "test": "NCI-60 cell line screen, 48 h", "units": {"GI50": "µM", "TGI": "µM"}}
{"smiles": "CSC1=Nc2c(c(C)c(C)n2COC(CO)CO)C2=NC(=O)C(C)N12", "note": "(centres undefined)", "GI50": "> 100", "TGI": "> 100"}
{"smiles": "COc1cccc(CCNC(=O)Cc2ccccc2CCO)c1", "TGI": "> 100"}
{"smiles": "CCOC(=O)C1=CN(C)C=C(C(=O)OCC)C1c1cc(Br)c(OCC)c(OC)c1", "GI50": "> 100", "TGI": "> 100"}
{"smiles": "N#Cc1c(N)nc(N2CCOCC2)c(C#N)c1-c1ccncc1", "GI50": "> 100", "TGI": "> 100"}
{"test_system": "SNB-19 CNS", "test": "NCI-60 cell line screen, 48 h", "units": {"GI50": "µM", "TGI": "µM"}}
{"smiles": "CSC1=Nc2c(c(C)c(C)n2COC(CO)CO)C2=NC(=O)C(C)N12", "note": "(centres undefined)", "GI50": "> 100", "TGI": "> 100"}
{"smiles": "COc1cccc(CCNC(=O)Cc2ccccc2CCO)c1", "TGI": "> 100"}
{"smiles": "CCOC(=O)C1=CN(C)C=C(C(=O)OCC)C1c1cc(Br)c(OCC)c(OC)c1", "GI50": "> 100", "TGI": "> 100"}
{"smiles": "N#Cc1c(N)nc(N2CCOCC2)c(C#N)c1-c1ccncc1", "GI50": "> 100", "TGI": "> 100"}
{"test_system": "MDA-MB-231 breast", "test": "NCI-60 cell line screen, 48 h", "units": {"GI50": "µM", "TGI": "µM"}}
{"smiles": "CSC1=Nc2c(c(C)c(C)n2COC(CO)CO)C2=NC(=O)C(C)N12", "note": "(centres undefined)", "GI50": "> 100", "TGI": "> 100"}
{"smiles": "COc1cccc(CCNC(=O)Cc2ccccc2CCO)c1", "TGI": "> 100"}
{"smiles": "CCOC(=O)C1=CN(C)C=C(C(=O)OCC)C1c1cc(Br)c(OCC)c(OC)c1", "GI50": 45.4, "TGI": "> 100"}
{"smiles": "N#Cc1c(N)nc(N2CCOCC2)c(C#N)c1-c1ccncc1", "GI50": 21.6, "TGI": "> 100"}
{"test_system": "MDA-MB-435", "test": "NCI-60 cell line screen, 48 h", "units": {"GI50": "µM", "TGI": "µM"}}
{"smiles": "CSC1=Nc2c(c(C)c(C)n2COC(CO)CO)C2=NC(=O)C(C)N12", "note": "(centres undefined)", "GI50": "> 100", "TGI": "> 100"}
{"smiles": "COc1cccc(CCNC(=O)Cc2ccccc2CCO)c1", "TGI": "> 100"}
{"smiles": "CCOC(=O)C1=CN(C)C=C(C(=O)OCC)C1c1cc(Br)c(OCC)c(OC)c1", "GI50": "> 100", "TGI": "> 100"}
{"smiles": "N#Cc1c(N)nc(N2CCOCC2)c(C#N)c1-c1ccncc1", "GI50": "> 100", "TGI": "> 100"}
{"test_system": "UACC-257 melanoma", "test": "NCI-60 cell line screen, 48 h", "units": {"GI50": "µM", "TGI": "µM"}}
{"smiles": "CSC1=Nc2c(c(C)c(C)n2COC(CO)CO)C2=NC(=O)C(C)N12", "note": "(centres undefined)", "GI50": "> 100", "TGI": "> 100"}
{"smiles": "COc1cccc(CCNC(=O)Cc2ccccc2CCO)c1", "TGI": "> 100"}
{"smiles": "CCOC(=O)C1=CN(C)C=C(C(=O)OCC)C1c1cc(Br)c(OCC)c(OC)c1", "GI50": "> 100", "TGI": "> 100"}
{"smiles": "N#Cc1c(N)nc(N2CCOCC2)c(C#N)c1-c1ccncc1", "GI50": 46.6, "TGI": "> 100"}
{"test_system": "NCI-H460 lung", "test": "NCI-60 cell line screen, 48 h", "units": {"GI50": "µM", "TGI": "µM"}}
{"smiles": "CSC1=Nc2c(c(C)c(C)n2COC(CO)CO)C2=NC(=O)C(C)N12", "note": "(centres undefined)", "GI50": "> 100", "TGI": "> 100"}
{"smiles": "COc1cccc(CCNC(=O)Cc2ccccc2CCO)c1", "TGI": "> 100"}
{"smiles": "CCOC(=O)C1=CN(C)C=C(C(=O)OCC)C1c1cc(Br)c(OCC)c(OC)c1", "GI50": 43.5, "TGI": "> 100"}
{"smiles": "N#Cc1c(N)nc(N2CCOCC2)c(C#N)c1-c1ccncc1", "GI50": 98.1, "TGI": "> 100"}
{"test_system": "K-562 leukemia", "test": "NCI-60 cell line screen, 48 h", "units": {"GI50": "µM", "TGI": "µM"}}
{"smiles": "CSC1=Nc2c(c(C)c(C)n2COC(CO)CO)C2=NC(=O)C(C)N12", "note": "(centres undefined)", "GI50": "> 100", "TGI": "> 100"}
{"smiles": "COc1cccc(CCNC(=O)Cc2ccccc2CCO)c1", "TGI": "> 100"}
{"smiles": "CCOC(=O)C1=CN(C)C=C(C(=O)OCC)C1c1cc(Br)c(OCC)c(OC)c1", "GI50": "> 100", "TGI": "> 100"}
{"smiles": "N#Cc1c(N)nc(N2CCOCC2)c(C#N)c1-c1ccncc1", "GI50": "> 100", "TGI": "> 100"}
{"test_system": "CCRF-CEM leukemia", "test": "NCI-60 cell line screen, 48 h", "units": {"GI50": "µM", "TGI": "µM"}}
{"smiles": "CSC1=Nc2c(c(C)c(C)n2COC(CO)CO)C2=NC(=O)C(C)N12", "note": "(centres undefined)", "GI50": "> 100", "TGI": "> 100"}
{"smiles": "COc1cccc(CCNC(=O)Cc2ccccc2CCO)c1", "TGI": "> 100"}
{"smiles": "CCOC(=O)C1=CN(C)C=C(C(=O)OCC)C1c1cc(Br)c(OCC)c(OC)c1", "GI50": "> 100", "TGI": "> 100"}
{"smiles": "N#Cc1c(N)nc(N2CCOCC2)c(C#N)c1-c1ccncc1", "GI50": "> 100", "TGI": "> 100"}
{"test_system": "ACHN renal", "test": "NCI-60 cell line screen, 48 h", "units": {"GI50": "µM", "TGI": "µM"}}
{"smiles": "CSC1=Nc2c(c(C)c(C)n2COC(CO)CO)C2=NC(=O)C(C)N12", "note": "(centres undefined)", "GI50": "> 100", "TGI": "> 100"}
{"smiles": "COc1cccc(CCNC(=O)Cc2ccccc2CCO)c1", "TGI": "> 100"}
{"smiles": "CCOC(=O)C1=CN(C)C=C(C(=O)OCC)C1c1cc(Br)c(OCC)c(OC)c1", "GI50": "> 100", "TGI": "> 100"}
{"smiles": "N#Cc1c(N)nc(N2CCOCC2)c(C#N)c1-c1ccncc1", "GI50": 40.7, "TGI": "> 100"}
{"test_system": "SW-620 colon", "test": "NCI-60 cell line screen, 48 h", "units": {"GI50": "µM", "TGI": "µM"}}
{"smiles": "CSC1=Nc2c(c(C)c(C)n2COC(CO)CO)C2=NC(=O)C(C)N12", "note": "(centres undefined)", "GI50": "> 100", "TGI": "> 100"}
{"smiles": "COc1cccc(CCNC(=O)Cc2ccccc2CCO)c1", "TGI": "> 100"}
{"smiles": "CCOC(=O)C1=CN(C)C=C(C(=O)OCC)C1c1cc(Br)c(OCC)c(OC)c1", "GI50": 67.2, "TGI": "> 100"}
{"smiles": "N#Cc1c(N)nc(N2CCOCC2)c(C#N)c1-c1ccncc1", "GI50": "> 100", "TGI": "> 100"}
{"test_system": "OVCAR-8 ovarian", "test": "NCI-60 cell line screen, 48 h", "units": {"GI50": "µM", "TGI": "µM"}}
{"smiles": "CSC1=Nc2c(c(C)c(C)n2COC(CO)CO)C2=NC(=O)C(C)N12", "note": "(centres undefined)", "GI50": "> 100", "TGI": "> 100"}
{"smiles": "COc1cccc(CCNC(=O)Cc2ccccc2CCO)c1", "TGI": "> 100"}
{"smiles": "CCOC(=O)C1=CN(C)C=C(C(=O)OCC)C1c1cc(Br)c(OCC)c(OC)c1", "GI50": "> 100", "TGI": "> 100"}
{"smiles": "N#Cc1c(N)nc(N2CCOCC2)c(C#N)c1-c1ccncc1", "GI50": "> 100", "TGI": "> 100"}
{"test_system": "HL-60(TB) leukemia", "test": "NCI-60 cell line screen, 48 h", "units": {"TGI": "µM", "GI50": "µM"}}
{"smiles": "CSC1=Nc2c(c(C)c(C)n2COC(CO)CO)C2=NC(=O)C(C)N12", "note": "(centres undefined)", "TGI": "> 100"}
{"smiles": "COc1cccc(CCNC(=O)Cc2ccccc2CCO)c1", "TGI": "> 100"}
{"smiles": "CCOC(=O)C1=CN(C)C=C(C(=O)OCC)C1c1cc(Br)c(OCC)c(OC)c1", "GI50": "> 100", "TGI": "> 100"}
{"smiles": "N#Cc1c(N)nc(N2CCOCC2)c(C#N)c1-c1ccncc1", "GI50": 62.9, "TGI": "> 100"}
{"test_system": "SF-268 CNS", "test": "NCI-60 cell line screen, 48 h", "units": {"GI50": "µM", "TGI": "µM"}}
{"smiles": "CSC1=Nc2c(c(C)c(C)n2COC(CO)CO)C2=NC(=O)C(C)N12", "note": "(centres undefined)", "GI50": "> 100", "TGI": "> 100"}
{"smiles": "COc1cccc(CCNC(=O)Cc2ccccc2CCO)c1", "TGI": "> 100"}
{"smiles": "CCOC(=O)C1=CN(C)C=C(C(=O)OCC)C1c1cc(Br)c(OCC)c(OC)c1", "GI50": "> 100", "TGI": "> 100"}
{"smiles": "N#Cc1c(N)nc(N2CCOCC2)c(C#N)c1-c1ccncc1", "GI50": "> 100", "TGI": "> 100"}
